Reference: ChEMBL document CHEMBL3885861, “Open TG-GATES”

Species on record: Rattus norvegicus
Assay: Open TG-GATES - Regimen: Daily Repeat
Format: toxicity, organism-based, Sprague-Dawley
Design: regimen Daily Repeat, gender Male, age 6 weeks
Settings: in vivo, po, 0 mg/kg, route gavage, dose level Control; for APTT / Bas / Eos / Fbg / Hb / Ht / Lym / MCH / MCHC / MCV / Mono / Neu / PT / Plat / RBC / Ret / WBC: tissue Blood; for KIDNEY_L / KIDNEY_R / KIDNEY_TOTAL: tissue Kidney; for LIVER: tissue Liver; for A/G / ALP / ALT / AST / BUN / CRE / Ca / Cl / DBIL / GLC / IP / K / LDH / Na / PL / RALB / TBIL / TC / TG / TP / gamma-GTP: tissue Plasma

## C=CCO [ALLYL ALCOHOL]
72 h, time 3 day
  TERMINAL_BW: 237.2 g
  APTT: 19.1 s
  Bas: 0%
  Eos: 1%
  Fbg: 221.6 mg/dL
  Hb: 13.4 g/dL
  Ht: 39.6%
  Lym: 79.4%
  MCH: 21 pg
  MCHC: 33.8%
  MCV: 62.1 fL
  Mono: 2.8%
  Neu: 16.6%
  PT: 11.7 s
  Plat: 133.7 x10_4/uL
  RBC: 638 x10_4/ul
  Ret: 5.7%
  WBC: 129.8 x10_2/uL
  KIDNEY_L: 1 g
  KIDNEY_R: 1 g
  KIDNEY_TOTAL: 2 g
  LIVER: 11.1 g
  A/G: 1.6
  ALP: 952.4 IU/L
  ALT: 38 IU/L
  AST: 65.8 IU/L
  BUN: 16.2 mg/dL
  CRE: 0.4 mg/dL
  Ca: 10.7 mg/dL
  Cl: 103.4 meq/L
  DBIL: 0.088 mg/dL
  GLC: 225.8 mg/dL
  IP: 6.1 mg/dL
  K: 4 meq/L
  LDH: 245.4 IU/L
  Na: 140.8 meq/L
  PL: 148.2 mg/dL
  RALB: 3.4 g/dL
  TBIL: 0.1 mg/dL
  TC: 77.4 mg/dL
  TG: 110.2 mg/dL
  TP: 5.4 g/dL
  gamma-GTP: 0.8 IU/L
[…], time 7 day
  TERMINAL_BW: 272.9 g
  APTT: 20 s
  Bas: 0%
  Eos: 1%
  Fbg: 227.6 mg/dL
  Hb: 13.3 g/dL
  Ht: 38.8%
  Lym: 79.4%
  MCH: 20.9 pg
  MCHC: 34.4%
  MCV: 60.6 fL
  Mono: 3%
  Neu: 16.2%
  PT: 11.9 s
  Plat: 136 x10_4/uL
  RBC: 640.4 x10_4/ul
  Ret: 5%
  WBC: 119.1 x10_2/uL
  KIDNEY_L: 1.1 g
  KIDNEY_R: 1.1 g
  KIDNEY_TOTAL: 2.2 g
  LIVER: 13.1 g
  A/G: 1.5
  ALP: 889.2 IU/L
  ALT: 34 IU/L
  AST: 60.8 IU/L
  BUN: 16.6 mg/dL
  CRE: 0.4 mg/dL
  Ca: 10.9 mg/dL
  Cl: 102 meq/L
  DBIL: 0.098 mg/dL
  GLC: 219.6 mg/dL
  IP: 6.9 mg/dL
  K: 3.9 meq/L
  LDH: 180.4 IU/L
  Na: 140.6 meq/L
  PL: 146 mg/dL
  RALB: 3.4 g/dL
  TBIL: 0.2 mg/dL
  TC: 74 mg/dL
  TG: 124.4 mg/dL
  TP: 5.6 g/dL
  gamma-GTP: 0.8 IU/L
[…], time 14 day
  TERMINAL_BW: 319.8 g
  APTT: 19.8 s
  Bas: 0%
  Eos: 1%
  Fbg: 229 mg/dL
  Hb: 14.2 g/dL
  Ht: 41%
  Lym: 78.2%
  MCH: 20.2 pg
  MCHC: 34.6%
  MCV: 58.5 fL
  Mono: 2.8%
  Neu: 17.6%
  PT: 12 s
  Plat: 126.7 x10_4/uL
  RBC: 701.8 x10_4/ul
  Ret: 4.1%
  WBC: 144 x10_2/uL
  KIDNEY_L: 1.2 g
  KIDNEY_R: 1.2 g
  KIDNEY_TOTAL: 2.4 g
  LIVER: 14.1 g
  A/G: 1.4
  ALP: 766.2 IU/L
  ALT: 34.2 IU/L
  AST: 61.2 IU/L
  BUN: 14.8 mg/dL
  CRE: 0.4 mg/dL
  Ca: 10.5 mg/dL
  Cl: 101.4 meq/L
  DBIL: 0.072 mg/dL
  GLC: 234 mg/dL
  IP: 6.9 mg/dL
  K: 3.7 meq/L
  LDH: 223.2 IU/L
  Na: 140.2 meq/L
  PL: 141.2 mg/dL
  RALB: 3.4 g/dL
  TBIL: 0.1 mg/dL
  TC: 68.8 mg/dL
  TG: 101 mg/dL
  TP: 5.8 g/dL
  gamma-GTP: 1.2 IU/L
[…], time 28 day
  TERMINAL_BW: 385.1 g
  APTT: 20.9 s
  Bas: 0%
  Eos: 1%
  Fbg: 220.6 mg/dL
  Hb: 15.7 g/dL
  Ht: 45.2%
  Lym: 81.8%
  MCH: 19.6 pg
  MCHC: 34.7%
  MCV: 56.5 fL
  Mono: 2.4%
  Neu: 14.4%
  PT: 11.8 s
  Plat: 111.6 x10_4/uL
  RBC: 801.6 x10_4/ul
  Ret: 2.6%
  WBC: 94.8 x10_2/uL
  KIDNEY_L: 1.3 g
  KIDNEY_R: 1.3 g
  KIDNEY_TOTAL: 2.6 g
  LIVER: 16 g
  A/G: 1.3
  ALP: 588.4 IU/L
  ALT: 33.6 IU/L
  AST: 59.2 IU/L
  BUN: 15.4 mg/dL
  CRE: 0.5 mg/dL
  Ca: 10.5 mg/dL
  Cl: 101.8 meq/L
  DBIL: 0.068 mg/dL
  GLC: 222.2 mg/dL
  IP: 6.1 mg/dL
  K: 3.4 meq/L
  LDH: 166.6 IU/L
  Na: 140.6 meq/L
  PL: 141.8 mg/dL
  RALB: 3.5 g/dL
  TBIL: 0.1 mg/dL
  TC: 71.2 mg/dL
  TG: 100.2 mg/dL
  TP: 6.2 g/dL
  gamma-GTP: 1 IU/L
